± gives the uncertainty stated by the source.
Experiment: xn = mol fraction of the nth substance listed

CC[n+]1ccn(C)c1.O=S(=O)([N-]S(=O)(=O)C(F)(F)F)C(F)(F)F + CC[n+]1ccn(C)c1.F[B-](F)(F)F
100 kPa
Details	electrical conductivity [S/m]	viscosity [mPa·s]
243.15 K, x1 = 0.2	0.039 ± 0.004	–
243.15 K, x1 = 0.3	0.043 ± 0.005	–
243.15 K, x1 = 0.4	0.033 ± 0.004	–
243.15 K, x1 = 0.5	0.038 ± 0.004	–
243.15 K, x1 = 0.6	0.023 ± 0.002	–
243.15 K, x1 = 0.7	0.046 ± 0.006	–
243.15 K, x1 = 0.8	0.028 ± 0.003	–
243.15 K, x1 = 1	0.011 ± 0.001	–
248.15 K, x1 = 0.2	0.062 ± 0.007	–
248.15 K, x1 = 0.3	0.068 ± 0.007	–
248.15 K, x1 = 0.4	0.053 ± 0.006	–
248.15 K, x1 = 0.5	0.06 ± 0.006	–
248.15 K, x1 = 0.6	0.039 ± 0.004	–
248.15 K, x1 = 0.7	0.072 ± 0.008	–
248.15 K, x1 = 0.8	0.045 ± 0.005	–
248.15 K, x1 = 1	0.019 ± 0.002	–
253.15 K, x1 = 0.2	0.094 ± 0.01	478 ± 58
253.15 K, x1 = 0.3	0.102 ± 0.011	485 ± 59
253.15 K, x1 = 0.4	0.081 ± 0.009	468 ± 57
253.15 K, x1 = 0.5	0.09 ± 0.009	460 ± 56
253.15 K, x1 = 0.6	0.061 ± 0.006	–
253.15 K, x1 = 0.7	0.107 ± 0.011	435 ± 52
253.15 K, x1 = 0.8	0.069 ± 0.007	403 ± 48
253.15 K, x1 = 1	0.031 ± 0.003	350 ± 41
258.15 K, x1 = 0.2	0.136 ± 0.014	–
258.15 K, x1 = 0.3	0.146 ± 0.015	–
258.15 K, x1 = 0.4	0.118 ± 0.012	–
258.15 K, x1 = 0.5	0.13 ± 0.014	–
258.15 K, x1 = 0.6	0.091 ± 0.01	–
258.15 K, x1 = 0.7	0.152 ± 0.016	–
258.15 K, x1 = 0.8	0.099 ± 0.01	–
258.15 K, x1 = 1	0.047 ± 0.005	–
263.15 K, x1 = 0.2	0.19 ± 0.02	226 ± 25
263.15 K, x1 = 0.3	0.202 ± 0.021	229 ± 25
263.15 K, x1 = 0.4	0.166 ± 0.017	222 ± 24
263.15 K, x1 = 0.5	0.18 ± 0.019	220 ± 24
263.15 K, x1 = 0.6	0.131 ± 0.014	–
263.15 K, x1 = 0.7	0.208 ± 0.021	208 ± 23
263.15 K, x1 = 0.8	0.138 ± 0.014	193 ± 21
263.15 K, x1 = 1	0.07 ± 0.007	173 ± 18
268.15 K, x1 = 0.2	0.255 ± 0.026	–
268.15 K, x1 = 0.3	0.27 ± 0.028	–
268.15 K, x1 = 0.4	0.226 ± 0.023	–
268.15 K, x1 = 0.5	0.242 ± 0.025	–
268.15 K, x1 = 0.6	0.18 ± 0.019	–
268.15 K, x1 = 0.7	0.276 ± 0.028	–
268.15 K, x1 = 0.8	0.186 ± 0.019	–
268.15 K, x1 = 1	0.099 ± 0.01	–
273.15 K, x1 = 0.2	0.334 ± 0.034	122 ± 13
273.15 K, x1 = 0.3	0.351 ± 0.036	124 ± 13
273.15 K, x1 = 0.4	0.298 ± 0.03	120 ± 13
273.15 K, x1 = 0.5	0.316 ± 0.032	120 ± 12
273.15 K, x1 = 0.6	0.241 ± 0.025	–
273.15 K, x1 = 0.7	0.357 ± 0.036	114 ± 12
273.15 K, x1 = 0.8	0.243 ± 0.025	105 ± 11
273.15 K, x1 = 1	0.135 ± 0.014	96.5 ± 9.8
278.15 K, x1 = 0.2	0.427 ± 0.043	–
278.15 K, x1 = 0.3	0.445 ± 0.045	–
278.15 K, x1 = 0.4	0.383 ± 0.039	–
278.15 K, x1 = 0.5	0.403 ± 0.041	–
278.15 K, x1 = 0.6	0.314 ± 0.032	–
278.15 K, x1 = 0.7	0.452 ± 0.046	–
278.15 K, x1 = 0.8	0.31 ± 0.032	–
278.15 K, x1 = 1	0.179 ± 0.018	–
283.15 K, x1 = 0.2	0.533 ± 0.054	72.6 ± 7.3
283.15 K, x1 = 0.3	0.553 ± 0.056	74 ± 7.5
283.15 K, x1 = 0.4	0.481 ± 0.049	72.4 ± 7.3
283.15 K, x1 = 0.5	0.503 ± 0.051	72.1 ± 7.3
283.15 K, x1 = 0.6	0.4 ± 0.041	–
283.15 K, x1 = 0.7	0.559 ± 0.057	69.1 ± 6.9
283.15 K, x1 = 0.8	0.388 ± 0.039	63.8 ± 6.4
283.15 K, x1 = 1	0.232 ± 0.024	59.3 ± 5.9
288.15 K, x1 = 0.2	0.654 ± 0.066	–
288.15 K, x1 = 0.3	0.674 ± 0.068	–
288.15 K, x1 = 0.4	0.594 ± 0.06	–
288.15 K, x1 = 0.5	0.617 ± 0.062	–
288.15 K, x1 = 0.6	0.499 ± 0.051	–
288.15 K, x1 = 0.7	0.68 ± 0.069	–
288.15 K, x1 = 0.8	0.475 ± 0.048	–
288.15 K, x1 = 1	0.294 ± 0.03	–
293.15 K, x1 = 0.2	0.79 ± 0.08	46.7 ± 4.7
293.15 K, x1 = 0.3	0.81 ± 0.082	47.9 ± 4.8
293.15 K, x1 = 0.4	0.721 ± 0.073	47 ± 4.7
293.15 K, x1 = 0.5	0.744 ± 0.075	47 ± 4.7
293.15 K, x1 = 0.6	0.612 ± 0.062	–
293.15 K, x1 = 0.7	0.815 ± 0.082	45.3 ± 4.5
293.15 K, x1 = 0.8	0.574 ± 0.058	41.7 ± 4.2
293.15 K, x1 = 1	0.365 ± 0.037	39.2 ± 3.9
298.15 K, x1 = 0.2	0.939 ± 0.094	–
298.15 K, x1 = 0.3	0.958 ± 0.096	–
298.15 K, x1 = 0.4	0.862 ± 0.087	–
298.15 K, x1 = 0.5	0.885 ± 0.089	–
298.15 K, x1 = 0.6	0.738 ± 0.076	–
298.15 K, x1 = 0.7	0.963 ± 0.096	–
298.15 K, x1 = 0.8	0.682 ± 0.07	–
298.15 K, x1 = 1	0.447 ± 0.045	–
303.15 K, x1 = 0.2	–	32 ± 3.2
303.15 K, x1 = 0.3	–	33 ± 3.3
303.15 K, x1 = 0.4	–	32.5 ± 3.3
303.15 K, x1 = 0.5	–	32.5 ± 3.3
303.15 K, x1 = 0.7	–	31.5 ± 3.2
303.15 K, x1 = 0.8	–	29 ± 2.9
303.15 K, x1 = 1	–	27.4 ± 2.7
313.15 K, x1 = 0.2	–	23 ± 2.3
313.15 K, x1 = 0.3	–	23.9 ± 2.4
313.15 K, x1 = 0.4	–	23.6 ± 2.4
313.15 K, x1 = 0.5	–	23.6 ± 2.4
313.15 K, x1 = 0.7	–	23 ± 2.3
313.15 K, x1 = 0.8	–	21.1 ± 2.1
313.15 K, x1 = 1	–	20.1 ± 2
323.15 K, x1 = 0.2	–	17.3 ± 1.7
323.15 K, x1 = 0.3	–	18 ± 1.8
323.15 K, x1 = 0.4	–	17.8 ± 1.8
323.15 K, x1 = 0.5	–	17.8 ± 1.8
323.15 K, x1 = 0.7	–	17.5 ± 1.8
323.15 K, x1 = 0.8	–	16 ± 1.6
323.15 K, x1 = 1	–	15.3 ± 1.5
333.15 K, x1 = 0.2	–	13.4 ± 1.3
333.15 K, x1 = 0.3	–	14.1 ± 1.4
333.15 K, x1 = 0.4	–	13.9 ± 1.4
333.15 K, x1 = 0.5	–	13.9 ± 1.4
333.15 K, x1 = 0.7	–	13.8 ± 1.4
333.15 K, x1 = 0.8	–	12.6 ± 1.3
333.15 K, x1 = 1	–	12.1 ± 1.2

CO + C[N+](C)(C)CCC[N+]1(C)CCCCC1.N#C[N-]C#N.N#C[N-]C#N
100 kPa, x2 = 0
Details	viscosity [mPa·s]
293.15 K	0.584 ± 0.059
323.15 K	0.395 ± 0.04

CCCCCCCCCC(=O)[O-].CCCCCCCCCCCCCC[P+](CCCCCC)(CCCCCC)CCCCCC + O
Details	viscosity [mPa·s]
358.15 K, 100 kPa, x2 = 0.872	9.345 ± 0.073

CC[n+]1ccn(C)c1.O=S(=O)([N-]S(=O)(=O)C(F)(F)F)C(F)(F)F + O
Details	electrical conductivity [S/m]	viscosity [mPa·s]
297.55 K, 101 kPa, x1 = 0.889	–	26 ± 0.7
297.85 K, 101 kPa, x2 = 0.205	1.22 ± 0.03	–
298 K, 101 kPa, x2 = 0.02	–	32.3 ± 3.3
298 K, 101 kPa, x2 = 0.0629	–	30.8 ± 3.1
298 K, 101 kPa, x2 = 0.199	–	25.4 ± 2.6
298 K, 101 kPa, x2 = 0.227	–	25.2 ± 2.6
298.15 K, 101 kPa, x2 = 0.205	1.3 ± 0.03	–
299.15 K, 101 kPa, x2 = 0.205	1.32 ± 0.03	–
300.35 K, 101 kPa, x2 = 0.205	1.38 ± 0.03	–
302.15 K, 101 kPa, x2 = 0.205	1.45 ± 0.03	–
302.85 K, 101 kPa, x2 = 0.205	1.51 ± 0.03	–
303.15 K, 100 kPa, x2 = 0.298	–	16.23 ± 0.14
303.95 K, 101 kPa, x2 = 0.205	1.61 ± 0.03	–
304.95 K, 101 kPa, x2 = 0.205	1.66 ± 0.03	–
313.15 K, 100 kPa, x2 = 0.298	–	12.29 ± 0.11
333.15 K, 100 kPa, x2 = 0.298	–	7.749 ± 0.067

CC[n+]1ccn(C)c1.O=S(=O)([N-]S(=O)(=O)C(F)(F)F)C(F)(F)F + O=C1OCCO1
100 kPa, x2 = 0
Details	viscosity [mPa·s]
383.15 K	4.2 ± 0.4
393.15 K	3.7 ± 0.4

CCCCCC[P+](CCCC)(CCCC)CCCC.F[B-](F)(F)F + CC#N
viscosity [mPa·s], 100 kPa
Details	x1 = 0.004011	x1 = 0.008155	x1 = 0.01203	x1 = 0.01615	x1 = 0.01996	x1 = 0.02404	x1 = 0.02792	x1 = 0.03151	x1 = 0.03559	x1 = 0.03974
293.15 K	0.374 ± 0.023	0.398 ± 0.024	0.419 ± 0.025	0.446 ± 0.027	0.47 ± 0.028	0.499 ± 0.03	0.526 ± 0.032	0.554 ± 0.034	0.585 ± 0.036	0.621 ± 0.038
298.15 K	0.357 ± 0.022	0.379 ± 0.023	0.399 ± 0.024	0.423 ± 0.026	0.446 ± 0.027	0.472 ± 0.029	0.497 ± 0.03	0.523 ± 0.032	0.551 ± 0.033	0.585 ± 0.036
303.15 K	0.341 ± 0.021	0.361 ± 0.022	0.38 ± 0.023	0.403 ± 0.024	0.423 ± 0.026	0.448 ± 0.027	0.47 ± 0.028	0.495 ± 0.03	0.521 ± 0.032	0.552 ± 0.034
308.15 K	0.326 ± 0.02	0.345 ± 0.021	0.362 ± 0.022	0.383 ± 0.023	0.403 ± 0.024	0.425 ± 0.026	0.446 ± 0.027	0.469 ± 0.028	0.493 ± 0.03	0.522 ± 0.032
313.15 K	0.313 ± 0.019	0.331 ± 0.02	0.347 ± 0.021	0.366 ± 0.022	0.384 ± 0.023	0.406 ± 0.025	0.425 ± 0.026	0.446 ± 0.027	0.468 ± 0.028	0.495 ± 0.03
318.15 K	0.3 ± 0.018	0.317 ± 0.019	0.332 ± 0.02	0.35 ± 0.021	0.367 ± 0.022	0.387 ± 0.023	0.405 ± 0.025	0.424 ± 0.026	0.445 ± 0.027	0.47 ± 0.029

Source: the CheMixHub ionic liquid set
